In US20240100081A1, “COMPOSITIONS AND METHODS FOR TREATING AGE-RELATED MACULAR DEGENERATION AND GEOGRAPHIC ATROPHY” (University of Virginia Patent Foundation, priority 2017, published 2024):

How the values were obtained:
IL-18 = IL-18 secretion ELISA, mouse RPE cells; assay type: cell-based; conditions: Casp11−/− and Mb21d1−/− mouse RPE cells; LPS-primed, MSU 250 μg/ml
Method: Secreted human and mouse interferon-β and IL-18 in the media were detected using the ELISA kits (mouse IFN-β, R&D Systems Cat #42400-1; mouse IL-18, R&D Systems Cat #7625; human IFN-β, R&D Systems Cat #41410; human IL-18, R&D systems Cat #DY318-05) according to the manufacturer's instructions. Primary mouse cells cultured as above. WT, Gsdmd^−/−, Casp11^−/−, and Mb21d1^−/− mouse RPE cells were seeded at a density of 250,000 cells/well in a 12-well plate. When confluency reached 60-70%, cells were transfected with 20 pmol of in vitro transcribed Alu RNA or mock using Lipofectamine 2000 reagent (Life Technologies, Carlsbad, CA) following the manufacturer protocol. Media was collected to detect secreted cytokine content at 8 to 24 h post-transfection. For examining the induction of IL-18 secretion by monosodium urate (MSU) crystals (Invivogen Cat #tlrl-msu), mouse RPE cells were primed with LPS (500 ng/ml) for 6 h and exposed to MSU (250 μg/ml) for 16 h, and media were collected to detect secreted cytokine.

RPE [1] = conditions: earlier demonstration (refs 2, 21); cited from earlier work
IFNB mRNA = IFNB mRNA real-time PCR, human RPE cells; assay type: cell-based; conditions: lentiviral shRNA
Method: Real-time PCR Total RNA purified from cell using Trizol reagent (Invitrogen) following manufacturer's recommendation was DNase treated and reverse transcribed using […]® Reverse Transcription kit (QIAGEN). The RT products (cDNA) were amplified by real-time quantitative PCR (Applied Biosystems 7900 HT Fast Real-Time PCR system) with Power SYBR green Master Mix. Relative gene expression was determined by 2^−ΔΔCt t method using 18S rRNA or GAPDH as internal control. Primers were used as described in the provisional patent application from which this application depends and as in Kerur et al., 2018, Nature, the publication resulting from the data in the provisional application. The primers were for human IFNB1, CASP4, DICER, cGAS, 18s rRNA, mitochondrial DNA, GAPDH, and GSDMD, MIP1α, IL6, IL8, and mouse Ifnb1, Gapdh, 18s rRNA, and mitochondrial DNA.
Lentivirus articles were either produced by the University of Kentucky Viral Production Core facilities or in house. Lentivirus vector plasmids expressing scrambled sequences or shRNA sequences targeting human caspase-4 and cGAS were purchased (MISSION®shRNA, Sigma-Aldrich) to produce lentiviral particles. Human RPE cells at passage 3 were incubated with lentiviral particles at multiplicity of infection (MOI) of 5 overnight in regular growth media containing polybrene (4 μg/ml). […] Knockdown of the target proteins was determined by immunoblotting.

caspase-1 = assay: Caspase-1 activation (p20) immunoblot in human RPE cells; assay type: cell-based; conditions: lentiviral shRNA
Method: (§1) Cell and tissue lysates prepared in RIPA buffer where homogenized by sonication. Protein concentration was determined using Pierce BCA Protein Assay Kit (Thermo Fisher Scientific Inc.). Equal quantity of protein (10-50 μg) prepared in Laemmli buffer were resolved by SDS-PAGE on NOVEX® Tris-Glycine Gels (Invitrogen), and transferred onto Immobilon-FL PVDF membranes (Millipore). The transferred membranes were blocked in ODYSSEY® Blocking Buffer (PBS) or 5% nonfat dry skim milk for 1 hour at RT and then incubated with primary antibody at 4° C. overnight. The immunoreactive bands were visualized with help of species specific secondary antibodies conjugated with IRDYE® or HRP. The blot image were either captured on ODYSSEY® imaging systems or on an autoradiography film. […]
Lentivirus articles were either produced by the University of Kentucky Viral Production Core facilities or in house. […] Knockdown of the target proteins was determined by immunoblotting.

STAT2 = STAT2 phosphorylation immunoblot, human RPE cells; assay type: cell-based; conditions: lentiviral shRNA
Method: as §1

caspase-4 = assay: Caspase-4 activation (p30) immunoblot in human RPE cells; assay type: cell-based; conditions: lentiviral shRNA
Method: as §1

cGAS = biological target: T1, cGAS (Mus musculus, UniProt Q8C6L5); assay: cGAS-mtDNA interaction immunoprecipitation assay (HA-cGAS MEFs); assay type: cell-based; conditions: HA-cGAS reconstituted Mb21d1−/− MEFs
T1 construct: expressed in transfected cells
T1 sequence (Q8C6L5 whole entry): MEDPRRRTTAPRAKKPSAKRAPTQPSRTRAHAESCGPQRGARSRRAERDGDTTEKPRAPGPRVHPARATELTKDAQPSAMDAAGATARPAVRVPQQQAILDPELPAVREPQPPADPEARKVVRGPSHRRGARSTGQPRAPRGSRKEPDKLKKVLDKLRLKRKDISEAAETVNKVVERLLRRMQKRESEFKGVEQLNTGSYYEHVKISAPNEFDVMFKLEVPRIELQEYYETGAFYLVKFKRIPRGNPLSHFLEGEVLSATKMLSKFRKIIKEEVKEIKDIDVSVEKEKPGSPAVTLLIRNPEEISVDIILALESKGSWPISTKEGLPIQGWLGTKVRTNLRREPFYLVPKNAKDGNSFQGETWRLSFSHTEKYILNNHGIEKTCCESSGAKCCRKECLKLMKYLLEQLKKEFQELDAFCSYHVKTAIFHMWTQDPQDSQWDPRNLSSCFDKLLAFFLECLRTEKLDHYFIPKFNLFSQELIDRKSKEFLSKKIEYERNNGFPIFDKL
Description: Immortalized cGAS^−/− mouse embryonic fibroblasts (MEF) reconstituted with HA-tagged mouse cGAS (HA-cGAS) were described earlier^28. Interaction between mtDNA and cGAS was monitored using Express Chromatin Immunoprecipitation Kit (Active Motif, CHIP-IT® Express, cat #53008). Briefly mock, Alu RNA, poly I: C or plasmid DNA (pUC19) transfected HA-cGAS reconstituted cGAS^−/− MEFs were fixed with 1% formaldehyde per manufacturer's instructions. The cells were then lysed by sonication in the shearing buffer, centrifuged for 10 min at 18,000 g in a 4° C. microfuge. The supernatant containing the cell lysate was collected and cGAS was immunoprecipitated from each sample using anti-HA tag antibody (Abcam, cat #ab9110). DNA in the IP was eluted, reverse crosslinked and purified using Chromatin IP DNA Purification Kit (Active Motif, cat #58002). Purified DNA was analyzed by qPCR using mouse mtDNA specific primer pairs.

RPE [2] = assay: RPE flat mount annexin V/PI staining in mice; conditions: Alu RNA-treated Gsdmd−/− mice
RPE [3] = assay: Alu-induced RPE degeneration in mice (subretinal injection; fundus photography, ZO-1 flat mounts); assay type: in vivo, mouse; conditions: Gsdmd−/− mice
Method: Alu-mediated RPE degeneration was induced by exposing mice to Alu RNA as previously described^14-18. Seven days later, RPE health was assessed by fundus photography and immunofluorescence staining of zonula occludens-1 (ZO-1) on RPE flat mounts (whole mount of posterior eye cup containing RPE and choroid layers). Mouse RPE and choroid flat mounts were fixed with 4% paraformaldehyde or 100% methanol, stained with rabbit polyclonal antibodies against mouse ZO-1 (1:100, Invitrogen), and visualized with Alexa-594 (Invitrogen). All images were obtained by microscopy (model SP-5, Leica; or Axio Observer Z1, Zeiss). Imaging was performed by an operator masked to the group assignments.
Binary Assignment: Healthy RPE cells form a polygonal tessellation with a principally hexagonal “honeycomb” formation. RPE degeneration was assessed as a disruption of this uniformity of this polygonal sheet. Thus, RPE health was assessed as the presence or absence of morphological disruption in RPE flat mounts by two independent raters who were masked to the group assignments. […] Inter-rater reliability was measured by agreement on assignments, Pearson coefficient of determination, and Fleiss κ. […]
Cellular Morphometry: Quantifying cellular morphometry for hexagonally packed cells was performed in semi-automated fashion by three masked graders by adapting our previous analysis of corneal endothelial cell density^19. […]

O=c1[nH]c(=O)c2[nH]c([O-])nc2[nH]1.[Na+] [MSU, monosodium urate]
IL-18 secretion (IL-18): unaffected

NCC(=O)O [glycine]
effect on Alu RNA-induced RPE degeneration (RPE [1]): neither necrostatin-1, an inhibitor of primary necrosis^39, nor glycine, an inhibitor of pyroptosis^40, blocks

CN1C(=O)C(Cc2c[nH]c3ccccc23)NC1=S (stereo not shown) [necrostatin-1]
effect on Alu RNA-induced RPE degeneration (RPE [1]): neither necrostatin-1, an inhibitor of primary necrosis^39, nor glycine, an inhibitor of pyroptosis^40, blocks

cGAS shRNA: shRNA against cGAS, Sigma-Aldrich TRCN0000150010, SEQ ID NO: 15 (guide CCGGCCTGCTGTAACACTTCTTATTCTCGAGAATAAGAAGTGTTACAGCAGGTTTTTTG; listed as Homo sapiens)
effect on DICER1 AS-induced IFNB mRNA (IFNB mRNA): markedly depressed
effect on Alu RNA-induced activation of caspase-1 (p20 subunit) (caspase-1): suppressed
effect on Alu RNA-induced phosphorylation of STAT2 (STAT2): suppressed
effect on Alu RNA-induced activation of caspase-4 (p30 subunit) (caspase-4): suppressed

poly(I:C)
enrichment of mtDNA in cGAS immunoprecipitate (cGAS): not

recIL-18: recombinant mature IL-18 (MBL Cat #B002-5)
annexin-V / PI staining of RPE flat mounts (RPE [2]): numerous annexin-V^+ PI^− cells
resistance to Alu RNA-induced RPE degeneration (RPE [3]): overcome
